Experimental findings from ChEMBL document CHEMBL1131031, “Indolequinone antitumor agents: reductive activation and elimination from (5-methoxy-1-methyl-4,7-dioxoindol-3-yl)methyl derivatives and hypoxia-selective cytotoxicity in vitro” (J Med Chem, 1998) are described below.

In general, IC50 refers to the concentration at which inhibition is half-maximal.

Assay [1] is described as follows: In vitro cytotoxicity against hypoxic V79-379A cells determined by MTT assay in the presence of nitrogen. In kind it is functional, cell-based. The conditions noted are these: Cricetulus griseus. A general note: Tetrazolium assays rely on reduction of a dye to a coloured formazan, in cell work by metabolically active cells.
Assay [2] is described as follows: In vitro cytotoxicity against […] V79-379A cells determined by MTT assay in the presence of air. In kind it is functional, cell-based. The note with it: Cricetulus griseus.

Regarding `COC1=CC(=O)c2c(c(COC(N)=O)cn2C)C1=O`, the IC50 in assay [1] stood at 0.04 µM; in assay [2], 3 µM.

For `COC1=CC(=O)c2c(c(COC(=O)c3ccccc3F)c(C)n2C)C1=O`, the IC50 in assay [1] came to 2 µM; in assay [2], 164 µM.

In the case of `COC1=CC(=O)c2c(c(Cc3cc(F)ccc3O)c(C)n2C)C1=O`, the IC50 in assay [1] turned out to be 110 µM; in assay [2], 200 µM.

For the compound `COC1=CC(=O)c2c(c(COC(=O)c3ccccc3)cn2C)C1=O`, the concentration for half-maximal inhibition (IC50) in assay [1] is 0.04 µM; in assay [2], 1.4 µM.

`COC1=CC(=O)c2c(c(COC(=O)c3ccc(F)cc3)cn2C)C1=O`: the IC50 in assay [1] worked out at 0.05 µM; in assay [2], 0.7 µM.

`COC1=CC(=O)c2c(c(COC(=O)c3ccccc3F)cn2C)C1=O`: the IC50 came to 0.04 µM in assay [1] and 0.5 µM in assay [2].

Take `COC1=CC(=O)c2c(c(COC(=O)c3ccccc3)c(C)n2C)C1=O`: the figures for the IC50 in assay [1] and in assay [2] were 0.2 µM and 16 µM, respectively.

Turning to `COC1=CC(=O)c2c(c(COC(N)=O)c(C)n2C)C1=O`, the IC50 in assay [1] amounted to 0.3 µM; in assay [2], 25 µM.

Consider `COC1=CC(=O)c2c(c(COc3ccc(F)cc3)c(C)n2C)C1=O`, for which the figures for the IC50 in assay [1] and in assay [2] were 0.85 µM and 31 µM, respectively.

On to `COC1=CC(=O)c2c(c(CO)cn2C)C1=O`, for which the IC50 in assay [1] was found to be 240 µM; in assay [2], 220 µM.

In the case of `COC1=CC(=O)c2c(c(CO)c(C3CC3)n2C)C1=O`, the IC50 was 820 µM in assay [1] and 540 µM in assay [2].

Regarding `COC1=CC(=O)c2c(c(CO)c(C)n2C)C1=O`, the IC50 in assay [1] was 285 µM; in assay [2], 1080 µM.

`COC1=CC(=O)c2c(c(Cc3ccc(O)c(F)c3)c(C)n2C)C1=O`: the results for the IC50 in assay [1] and in assay [2] were 280 µM and 470 µM, respectively.

Turning to `CCOC(=S)SCc1c2c(n(C)c1C)C(=O)C=C(OC)C2=O`, the IC50 was 3 µM in assay [1] and 67 µM in assay [2].

For `COC1=CC(=O)c2c(c(COC(=O)c3ccccc3)c(C3CC3)n2C)C1=O`, the IC50 stood at 1 µM in assay [1] and 198 µM in assay [2].

Take `COC1=CC(=O)c2c(c(COc3cccc(NC(C)=O)c3)c(C)n2C)C1=O`: the IC50 in assay [1] was determined as 0.04 µM; in assay [2] it was 3.7 µM.

Consider `COC1=CC(=O)c2c(c(COC(C)=O)c(C)n2C)C1=O`, for which the IC50 stood at 2.5 µM in assay [1] and 27 µM in assay [2].

On to `COC1=CC(=O)c2c(c(COCc3ccccc3)c(C)n2C)C1=O`, for which the IC50 in assay [1] was 410 µM; in assay [2] it was 225 µM.

As for `COC1=CC(=O)c2c(c(CCl)cn2C)C1=O`, the figures for the IC50 in assay [1] and in assay [2] were 33 µM and 304 µM, respectively.

Turning to `COC1=CC(=O)c2c(c(COC(=O)Cc3ccc(-c4ccccc4)cc3)c(C)n2C)C1=O`, the IC50 came to 0.66 µM in assay [1] and 14.1 µM in assay [2].

As to `COC1=CC(=O)c2c(c(COc3c(Cl)cc(Cl)cc3Cl)cn2C)C1=O`, the IC50 in assay [1] came out at 0.08 µM; in assay [2], 0.7 µM.

With `COC1=CC(=O)c2c(c(COC(=O)c3ccc(F)cc3)c(C)n2C)C1=O`, the IC50 is 0.3 µM in assay [1] and 27 µM in assay [2].

In the case of `COC1=CC(=O)c2c(c(COc3ccccc3)c(C)n2C)C1=O`, the IC50 in assay [1] is 0.7 µM; in assay [2], 12 µM.
